According to publication PMC6950969 (Saudi Pharmaceutical Journal : SPJ, 2019):
≈ marks a conversion by molar mass, not a printed value. Counter-ions that a name gives are not always drawn.

Tests used:
[1] = test system: butyrylcholinesterase (BChE); assay: BChE inhibition, Ellman's method; format: biochemical; conditions: for Percentile of inhibition ± S.E.M against BChE: 20 µg/mL
[2] = Anti-lipid peroxidation activity
hCA II = hCA II (Homo sapiens, UniProt P00918); assay: hCA II inhibition, esterase activity; format: biochemical
hCA I = hCA I (Homo sapiens, UniProt P00915); assay: hCA I inhibition, esterase activity; format: biochemical
[3] = test system: butyrylcholinesterase (BChE); conditions: coumarins from Angelica officinalis L. fruits; ref Ferreira et al., 2006; cited from earlier work
[4] = test system: Acetylcholinesterase (AChE); assay: AChE inhibition, Ellman's method; format: biochemical; conditions: 20 µg/mL
Caco-2 cells = conditions: purified from A. dahurica; ref Liu et al., 2016; cited from earlier work
pPI3K and pAkt = conditions: cells Caco-2; ref Liu et al., 2016; cited from earlier work

Sequence of hCA I (P00915 whole entry): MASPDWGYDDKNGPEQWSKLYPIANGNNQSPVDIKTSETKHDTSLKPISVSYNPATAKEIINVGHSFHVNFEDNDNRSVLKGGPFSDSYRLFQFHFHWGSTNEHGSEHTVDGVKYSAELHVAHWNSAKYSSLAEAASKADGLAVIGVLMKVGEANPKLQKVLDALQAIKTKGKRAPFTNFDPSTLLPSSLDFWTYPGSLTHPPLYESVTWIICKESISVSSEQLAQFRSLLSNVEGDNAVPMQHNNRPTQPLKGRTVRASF

| Compound | Percentile of inhibition ± S.E.M against BChE [1] [%] | IC50 values ± SD, anti-lipid peroxidation (TBA test) [2] [µg/mL] | inhibition towards butyrylcholinesterase (BChE) (in words) [3] | also measured |
| --- | --- | --- | --- | --- |
| COc1cc2c(cc1OC)C(=O)C(CC1CCN(Cc3ccccc3)CC1)C2 (centres unmarked) [Donepezil, donepezil hydrochloride, reference compound] | 90.33 ± 4.16 |  |  |  |
| COc1c2ccoc2cc2oc(=O)ccc12 [Bergapten] | 31.00 ± 3.02 | 56.99 ± 3.87 (≈ 264 µM) | strong inhibition | IC50 (hCA II): 8.25 µM; Ki (hCA II): 12.8 ± 1.92 µM; IC50 (hCA I): 7.29 µM; Ki (hCA I): 4.79 ± 0.57 µM; Percentile of inhibition ± S.E.M against AChE [4]: 18.98 ± 2.98% |
| C[C@@H]1O[C@@H](OC[C@H]2O[C@@H](Oc3c(-c4ccc(O)c(O)c4)oc4cc(O)cc(O)c4c3=O)[C@H](O)[C@@H](O)[C@@H]2O)[C@H](O)[C@H](O)[C@H]1O [Rutin, reference compound] |  | 9.65 ± 3.09 (≈ 15.8 µM) |  |  |
| CCCOC(=O)c1cc(O)c(O)c(O)c1 [Propyl gallate, reference compound] |  | 3.44 ± 2.05 (≈ 16.2 µM) |  |  |
| CC[C@H](/C=C/[C@@H](C)[C@H]1CC[C@H]2[C@@H]3CC=C4C[C@@H](O)CC[C@]4(C)[C@H]3CC[C@]12C)C(C)C [Stigmasterol] | 13.34 ± 2.99 |  |  | BChE inhibition activity (in words) [1]: did not show considerable inhibition towards BChE |
| CC[C@H](CC[C@@H](C)[C@H]1CC[C@H]2[C@@H]3CC=C4C[C@@H](O)CC[C@]4(C)[C@H]3CC[C@]12C)C(C)C [β-Sitosterol] | 9.93 ± 1.78 | 492.30 ± 2.03 (≈ 1190 µM) |  | BChE inhibition activity (in words) [1]: did not show considerable inhibition towards BChE |
| CC(C)=CCOc1c2ccoc2cc2oc(=O)ccc12 [isoimperatorin] |  |  | strong inhibition |  |
| CC1(C)O[C@H]1COc1c2ccoc2cc2oc(=O)ccc12 [Oxypeucedanin] | 36.89 ± 1.23 | 91.27 ± 2.76 (≈ 319 µM) |  | IC50 (hCA II): 5.29 µM; Ki (hCA II): 8.85 ± 1.05 µM; IC50 (hCA I): 6.73 µM; Ki (hCA I): 5.33 ± 1.08 µM; Percentile of inhibition ± S.E.M against AChE [4]: 19.36 ± 1.87% |
| O=C(/C=C/c1ccc(O)c(O)c1)O[C@@H]1C[C@](O)(C(=O)O)C[C@@H](O)[C@H]1O [Chlorogenic acid, reference compound] |  | 12.98 ± 4.89 (≈ 36.6 µM) |  |  |
| COc1c2occc2cc2ccc(=O)oc12 [xanthotoxin] |  |  | strong inhibition |  |
| Oxypeucedanin hydrate monoacetate |  |  |  | cancer cell migration (in words) (Caco-2 cells): inhibition of cancer cell migration; expression of pPI3K and pAkt (in words) (pPI3K and pAkt): significant down-regulation |
| CC(C)=CCOc1c2occc2cc2ccc(=O)oc12 [imperatorin] |  |  | strong inhibition |  |
